Data reported in paper PMC4657038, “Large-Scale Computational Screening Identifies First in Class Multitarget Inhibitor of EGFR Kinase and BRD4” (Scientific Reports, 2015).
“And” between values parts separate entries of the source, which are not always exact repeats. Identical values can stand only once. Like-named read-outs stand apart in the source and are kept apart here.

Tests used:
BRD4(1) [1] = molecular target: T1, BRD4(1) (Homo sapiens, UniProt O60885); assay: BRD4(1) biochemical alphascreen assay (disruption of BRD4(1) binding to acetylated biotin-histone 4 peptide); set-up: BRD4-BD1 (49–170, BPS Bio #31042) was stored at −80 °C; purchased BPS Bio 31042; conditions: for IC50: alpha screen, average, 9 concentrations in triplicate (n = 3), read-out: IC50 against BRD4(1)
Description: After searching multiple commercial providers for the top 108 compounds, Enamine LLC (http://www.enamine.net/) provided 24 compounds comprising 5 chemical scaffolds including substituted 2-pyrrolidinones, quinazolin-4-amines, thienopyrimidin-4-amines, and imidazolidinones (Supplementary Table 2). […] As illustrated, several compounds have confirmed activity against BRD4(1) and one compound, Z118332870 (2870), is active against BRD4 and EGFR kinase. Compounds that were not confirmed BRD4(1) actives were not tested in the EGFR assay because we were primarily interested in novel dual BRD4 and EGFR inhibitors. To evaluate small molecule BRD4 bromodomain binding, we utilized a biochemical alphascreen assay that measured disruption of BRD4(1) binding to pre-acetylated biotin-histone 4 peptide by proximity detection of the conjugated donor and acceptor beads via transient singlet oxygen. […] To validate results, a counter-screen assay (see Methods for details) was performed to ensure that compounds were not interacting with assay components other than recombinant BRD4(1) (Supplementary Figure 3).
The BRD4(1) alpha screen assay was performed with a pre-acetylated Biotin-Histone 4 Peptide [H4K5/8/12/16(Ac)] 1 – 21 (AnaSpec #64989-025, 0.25 mg). A 200 μM stock was made and stored at −80 °C. BRD4-BD1 (49–170, BPS Bio #31042) was stored at −80 °C at a concentration of 50 μM. All compounds used in assays were kept in a 10 mM stock at −80 °C, with I-BET151 being used as a control. The assay buffer contained 50 mM HEPES, 100 mM NaCl, and 0.1% BSA at a pH of 7.4, and was stored at 4 °C. 10% CHAPS (Sigma C3023) was added to the assay buffer before each experiment and was stored at room temperature.
Before use, assay buffer was equilibrated to room temperature and supplemented with 0.05% CHAPS. 3X His-BRD4-BD1 was diluted in assay buffer to 600 nM with a final concentration of 200 nM in a 12 μl reaction volume. 4 μl per well of 3X His-BRD4-BD1 was added to an OptiPlate-384 (Perkin Elmer #6007290) covered with Top Seal-A Film (Perkin Elmer #6005250) and pulsed at 900 × g. 3X BRD Inhibitors or DMSO vehicle was prepared in Assay Buffer starting at 300 μM and diluting 3X to 46 nM. 4 μl of buffer (positive control), 3X DMSO Vehicle, or 3X BRD Inhibitor (I-BET151 as control) were added to each well, sealed with Top Seal-A film and pulsed at 900 × g. The plate was then incubated at room temperature for 30 minutes. 3X Biotin-H4K4Ac was prepared by diluting stock in Assay Buffer to 600 nM, with a final concentration of 200 nM in a 12 μl reaction volume. 4 μl of Biotin-H4K4Ac was added per well, sealed and pulsed at 900 × g. The plate was then incubated at room temperature for another 30 minutes. AlphaLISA Nickel Chelate Acceptor Beads (Perkin Elmer #1547780, 5 mg/ml, 4 °C) and AlphaScreen Streptavidin Donor Beads (Perkin Elmer #6760002, 5 mg/ml, 4 °C) were prepared at 2.5X by diluting in Assay Buffer to 25 μg/ml with a final concentration of each bead equaling 10 μg/ml in a 20 μl reaction volume. 8 μl per well of Donor and Acceptor beads were added in the dark to each well, sealed, wrapped with foil to protect from light, and pulsed at 900 × g. The plate was then incubated at room temperature for 60 minutes and read on an EnVision instrument using Alpha Mode (680 excitiation/615 emission/read signal). Dose response curves were obtained and interpreted using GraphPad Prism software for curve fitting to obtain IC50 values. […]

ERBB4 = ERBB4 (Homo sapiens, UniProt Q15303); assay: Kinase activity enzyme profiling, ERBB4; type: biochemical
BRD4(1) [2] = molecular target: T1, BRD4(1); assay: Differential scanning fluorimetry (DSF) with BRD4(1); type: binding; set-up: Bromodomain 1 (BRD4(1)) and Bromodomain 2 (BRD4(2))
Experimental: The inhibitory activity of compound Z118332870 (2870) against BRD4(1) was assessed by DSF using a StepOnePlus Real-Time PCR system (Applied Biosystems). Purified BRD4(1) (4 μM final concentration; 10 mM HEPES (pH 7.5), 100 mM NaCl, and 1 mM DTT) was assayed, in triplicates, in a 96-well plate. Compound was added to a final concentration of 100 μM and 2% DMSO. Protein Thermal Shift Dye (1:8000; Applied Biosystems) was used as the fluorescent probe and fluorescence was measured using the ROX Reporter channel (620 nm). Protein stability was investigated by programing the thermocycler to increase the temperature from 25 °C to 99 °C using 0.2 °C increments and 10 second incubations per increment. The inflection point of the transition curve/melting temperature (Tm) was calculated using the Boltzmann equation within the Protein Thermal Shift Software (v.1.1) (Applied Biosystems). The ΔTm was calculated by using DMSO control wells as a reference.

EGFR (ERBB1) = EGFR (ERBB1) (Homo sapiens, UniProt P00533); assay: EGFR kinase activity enzyme assay (radioisotope filter binding, hotspot); type: biochemical
Experimental: A radioisotope filter binding method was used in the EGFR kinase hotspot assay, performed by the Reaction Biology Corporation, LLC. The base reaction buffer was composed of 20 mM HEPES (pH 7.5); 10 mM MgCl2, 1 mM EGTA, 0.02% Brij35, 0.02 mg/mL BSA, 0.1 mM Na3VO4, 2 mM DTT, and 1% DMSO. The substrate was freshly prepared using the base reaction buffer. Kinase was added into the substrate solution at a concentration of 10 μM and gently mixed. Compounds were then added into the kinase reaction mixture. At this point, the ^33P-ATP was added into the reaction mixture to initiate the reaction. The reaction was incubated for 120 minutes at room temperature. After completion, reactions were spotted onto P81 ion exchange paper (Whatman #3698-915). Filters were then washed extensively in 0.75% Phosphoric acid and a scintillation counter was used to quantify the amount of radioactivity on the filter.

ERBB2 = ERBB2 (Homo sapiens, UniProt P04626); assay: Kinase activity enzyme profiling, ERBB2; type: biochemical
Chain of ERBB2 (P04626 23-1255): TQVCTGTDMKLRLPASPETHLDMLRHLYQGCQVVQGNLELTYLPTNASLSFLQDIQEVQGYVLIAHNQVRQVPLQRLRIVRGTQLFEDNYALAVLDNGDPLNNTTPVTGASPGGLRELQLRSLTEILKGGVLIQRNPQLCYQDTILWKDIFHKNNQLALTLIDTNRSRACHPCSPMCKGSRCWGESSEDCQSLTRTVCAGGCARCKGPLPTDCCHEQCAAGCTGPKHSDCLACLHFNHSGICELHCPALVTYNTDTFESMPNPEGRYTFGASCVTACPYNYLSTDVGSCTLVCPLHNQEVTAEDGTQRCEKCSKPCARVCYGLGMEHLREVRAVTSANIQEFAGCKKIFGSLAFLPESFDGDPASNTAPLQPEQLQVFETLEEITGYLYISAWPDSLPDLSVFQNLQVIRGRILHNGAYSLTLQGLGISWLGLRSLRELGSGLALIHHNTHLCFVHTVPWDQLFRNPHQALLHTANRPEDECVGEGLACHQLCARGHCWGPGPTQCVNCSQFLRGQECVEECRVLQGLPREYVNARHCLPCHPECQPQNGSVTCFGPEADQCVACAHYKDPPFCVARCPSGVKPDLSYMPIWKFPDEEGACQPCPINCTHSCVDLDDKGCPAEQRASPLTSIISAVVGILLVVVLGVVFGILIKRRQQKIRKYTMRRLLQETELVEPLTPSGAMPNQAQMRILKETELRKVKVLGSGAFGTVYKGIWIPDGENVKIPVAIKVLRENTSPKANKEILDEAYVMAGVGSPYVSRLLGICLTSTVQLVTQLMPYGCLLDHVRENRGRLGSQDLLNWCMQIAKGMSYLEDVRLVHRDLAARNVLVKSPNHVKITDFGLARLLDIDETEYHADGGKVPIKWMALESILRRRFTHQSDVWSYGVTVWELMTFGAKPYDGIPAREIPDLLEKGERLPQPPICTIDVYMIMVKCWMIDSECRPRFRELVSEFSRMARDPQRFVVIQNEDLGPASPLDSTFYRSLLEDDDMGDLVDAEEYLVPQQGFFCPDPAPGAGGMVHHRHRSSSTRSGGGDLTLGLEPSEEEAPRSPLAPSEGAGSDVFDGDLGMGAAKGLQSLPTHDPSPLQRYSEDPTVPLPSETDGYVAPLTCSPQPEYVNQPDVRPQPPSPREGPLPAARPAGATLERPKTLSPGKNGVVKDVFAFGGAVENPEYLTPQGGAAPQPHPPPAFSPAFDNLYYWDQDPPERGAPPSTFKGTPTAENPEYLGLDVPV

Chain of ERBB4 (Q15303 26-1308): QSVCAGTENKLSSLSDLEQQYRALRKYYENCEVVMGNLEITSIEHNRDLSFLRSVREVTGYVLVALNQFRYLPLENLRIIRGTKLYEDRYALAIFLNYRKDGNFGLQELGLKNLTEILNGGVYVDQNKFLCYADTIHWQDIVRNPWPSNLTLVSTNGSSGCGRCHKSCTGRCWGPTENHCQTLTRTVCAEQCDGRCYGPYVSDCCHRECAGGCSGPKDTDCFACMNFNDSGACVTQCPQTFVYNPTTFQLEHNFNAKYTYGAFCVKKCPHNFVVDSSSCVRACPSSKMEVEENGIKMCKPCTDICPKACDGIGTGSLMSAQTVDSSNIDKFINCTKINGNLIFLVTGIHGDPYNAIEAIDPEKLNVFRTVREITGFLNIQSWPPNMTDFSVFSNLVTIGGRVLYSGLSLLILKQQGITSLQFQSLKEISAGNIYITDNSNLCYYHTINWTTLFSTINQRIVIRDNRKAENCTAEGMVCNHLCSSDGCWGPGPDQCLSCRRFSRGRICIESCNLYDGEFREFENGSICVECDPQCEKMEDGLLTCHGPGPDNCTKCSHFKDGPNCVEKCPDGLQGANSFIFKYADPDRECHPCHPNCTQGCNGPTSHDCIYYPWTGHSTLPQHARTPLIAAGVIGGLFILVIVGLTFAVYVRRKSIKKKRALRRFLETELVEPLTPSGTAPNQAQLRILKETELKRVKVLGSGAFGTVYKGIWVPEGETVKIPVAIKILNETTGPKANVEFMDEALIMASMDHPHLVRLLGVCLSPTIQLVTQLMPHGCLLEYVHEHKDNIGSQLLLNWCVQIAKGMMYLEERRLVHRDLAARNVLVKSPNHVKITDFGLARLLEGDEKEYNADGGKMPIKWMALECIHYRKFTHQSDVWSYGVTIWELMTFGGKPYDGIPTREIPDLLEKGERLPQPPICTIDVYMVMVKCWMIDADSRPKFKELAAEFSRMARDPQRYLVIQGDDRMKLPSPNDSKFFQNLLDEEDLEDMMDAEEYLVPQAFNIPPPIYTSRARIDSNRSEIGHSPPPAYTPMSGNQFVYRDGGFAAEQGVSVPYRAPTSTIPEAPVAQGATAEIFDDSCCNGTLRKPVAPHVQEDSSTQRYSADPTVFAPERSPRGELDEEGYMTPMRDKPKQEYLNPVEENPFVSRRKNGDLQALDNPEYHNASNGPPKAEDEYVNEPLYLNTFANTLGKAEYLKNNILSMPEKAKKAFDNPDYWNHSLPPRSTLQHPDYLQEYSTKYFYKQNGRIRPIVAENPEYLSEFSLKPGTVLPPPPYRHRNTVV
Chain of EGFR (ERBB1) (P00533 25-1210): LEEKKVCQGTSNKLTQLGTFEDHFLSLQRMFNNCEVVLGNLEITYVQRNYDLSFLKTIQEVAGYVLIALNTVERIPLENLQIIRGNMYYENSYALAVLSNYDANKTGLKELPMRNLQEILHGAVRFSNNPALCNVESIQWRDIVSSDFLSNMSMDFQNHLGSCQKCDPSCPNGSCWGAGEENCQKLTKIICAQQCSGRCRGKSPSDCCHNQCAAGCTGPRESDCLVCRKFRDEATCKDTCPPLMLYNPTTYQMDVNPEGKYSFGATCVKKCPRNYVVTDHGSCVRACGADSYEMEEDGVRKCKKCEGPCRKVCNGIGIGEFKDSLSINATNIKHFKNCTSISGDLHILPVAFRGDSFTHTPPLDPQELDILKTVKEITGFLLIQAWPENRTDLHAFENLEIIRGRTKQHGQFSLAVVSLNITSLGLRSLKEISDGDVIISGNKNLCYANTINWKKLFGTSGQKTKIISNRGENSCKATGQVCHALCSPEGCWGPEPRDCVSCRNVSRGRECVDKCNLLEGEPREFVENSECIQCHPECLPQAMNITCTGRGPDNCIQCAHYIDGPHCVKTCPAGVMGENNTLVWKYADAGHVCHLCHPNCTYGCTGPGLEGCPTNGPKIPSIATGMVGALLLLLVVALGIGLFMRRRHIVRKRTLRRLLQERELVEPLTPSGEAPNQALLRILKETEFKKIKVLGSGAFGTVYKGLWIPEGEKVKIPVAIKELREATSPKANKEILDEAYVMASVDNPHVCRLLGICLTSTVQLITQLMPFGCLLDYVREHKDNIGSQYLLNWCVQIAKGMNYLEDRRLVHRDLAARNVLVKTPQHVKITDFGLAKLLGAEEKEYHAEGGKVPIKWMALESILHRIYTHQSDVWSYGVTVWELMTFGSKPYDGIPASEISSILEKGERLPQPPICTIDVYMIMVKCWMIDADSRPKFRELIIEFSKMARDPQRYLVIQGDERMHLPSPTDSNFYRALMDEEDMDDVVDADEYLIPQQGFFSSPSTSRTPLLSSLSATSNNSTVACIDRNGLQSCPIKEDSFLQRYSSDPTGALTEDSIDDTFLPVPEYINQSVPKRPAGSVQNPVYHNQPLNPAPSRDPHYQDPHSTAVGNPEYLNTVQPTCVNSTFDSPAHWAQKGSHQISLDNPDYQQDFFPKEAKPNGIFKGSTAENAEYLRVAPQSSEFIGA

activity in BRD4(1) alphascreen assay (in words) (BRD4(1) [1])	SMILES	IC50 (BRD4(1) [1])	selectivity for EGFR over ERBB4 (ERBB4; EGFR vs ERBB4 IC50)	IC50 (ERBB4; kinase activity enzyme profiling, read-out: IC50 against ERBB4)	ΔTm at 100 µM (BRD4(1) [2]; DSF, compound 100 μM, BRD4(1) 4 μM, relative to DMSO)	IC50 (BRD4(1) [2]; corresponds to ΔTm based on the standard curve, read-out: predicted IC50 from DSF standard curve)	IC50 (EGFR (ERBB1); kinase enzyme activity assay, read-out: IC50 against EGFR)	IC50 (EGFR (ERBB1); radioisotope filter binding assay, substrate concentration 10 μM, n = 3, read-out: IC50 against EGFR kinase)	selectivity for EGFR over ERBB2 (ERBB2; EGFR vs ERBB2 IC50)	IC50 (ERBB2; kinase activity enzyme profiling, read-out: IC50 against ERBB2)
Confirmed active	c1nc(NCCCN2CCOCC2)c2c3c(sc2n1)CCC3 [compound 0012]	17 µM								
Confirmed active	COc1ccc(Br)cc1S(=O)(=O)Nc1cccc(N2CCCC2=O)c1 [compound 8302]									

SMILES	activity in BRD4(1) alphascreen assay (in words) (BRD4(1) [1])	IC50 (BRD4(1) [1])	selectivity for EGFR over ERBB4 (ERBB4; EGFR vs ERBB4 IC50)	IC50 (ERBB4; kinase activity enzyme profiling, read-out: IC50 against ERBB4)	ΔTm at 100 µM (BRD4(1) [2]; DSF, compound 100 μM, BRD4(1) 4 μM, relative to DMSO)	IC50 (BRD4(1) [2]; corresponds to ΔTm based on the standard curve, read-out: predicted IC50 from DSF standard curve)	IC50 (EGFR (ERBB1); kinase enzyme activity assay, read-out: IC50 against EGFR)	IC50 (EGFR (ERBB1); radioisotope filter binding assay, substrate concentration 10 μM, n = 3, read-out: IC50 against EGFR kinase)	selectivity for EGFR over ERBB2 (ERBB2; EGFR vs ERBB2 IC50)	IC50 (ERBB2; kinase activity enzyme profiling, read-out: IC50 against ERBB2)
COc1cc2ncnc(NCCOc3ccccc3F)c2cc1OC [compound 2870]	Confirmed active	9 µM and 9.02 µM	500 fold	24.2 µM	1.15 °C	9.1 µM	0.0442 µM	0.044 µM	about 200 fold	8.73 µM
